IC50 data for 24 compounds are collected here from US8637523B2, “Compounds for the reduction of beta-amyloid production” (Bristol-Myers Squibb Company, priority 2010, dated 2014).

For this assay, the system named is Aβ42. Briefly: Cellular assay for inhibition of Aβ1-42 production (H4 APP751 SWE clone 8.20). The note with it: H4 APP751 SWE clone 8.20 cells, 19 h incubation. Format: cell-based. On the procedure:
Cellular Assays for Inhibition of Aβ1-40 and Aβ1-42 Production
H4 cells stably transfected with APP751 containing the Swedish mutation (H4 APP751 SWE clone 8.20, developed at BMS) were maintained in log phase through twice weekly passage at a 1:20 split. […] Following incubation for 19 h in 5% CO2 at 37° C., plates were briefly centrifuged (1000 rpm, 5 min). A 10 μl aliquot from each well was transferred to a second assay plate (Costar 3709) for Aβ40 measurements. Antibody cocktails were freshly prepared by dilution into 40 mM Tris-HCl (pH 7.4) with 0.2% BSA and added to assay plates. For Aβ42 measurements, antibodies specific for the Aβ42 neoepitope (565, developed at BMS; conjugated to the Wallac reagent (Perkin Elmer)) and the N-terminal sequence of Aβ peptide (26D6, developed at SIBIA; conjugated to APC (Perkin Elmer)) were mixed and 20 μl of the mixture was added to each well of the incubated cell plate yielding a final concentration of 0.8 ng/well 565 and 75 ng/well 26D6. For the Aβ40 measurements, antibodies specific for the Aβ40 neoepitope (TSD, developed at BMS; conjugated to the Wallac reagent (Perkin Elmer)) and 26D6 as described above were mixed and 20 μl of the mixture was added to the 10 μl aliquots which had been removed previously from the cell plate yielding a final concentration of 1.6 ng/well TSD and 17.5 ng/well 26D6. Assay plates containing antibodies were sealed with aluminum foil and incubated overnight at 4° C. Signal was determined using a Viewlux counter (Perkin Elmer) and IC50 values determined using curve fitting in CurveMaster (Excel Fit based).

[1] abbreviates: read-out: Activity Rating (Aβ42 cellular IC50), class symbol.
Where [2] appears, read: 19 h, read-out: Activity Rating (Aβ42 cellular IC50), class symbol.
[3] abbreviates: unit inferred, read-out: Activity Rating (Aβ42 cellular IC50), numeric value.

One may read the IC50 as the midpoint of a concentration-inhibition curve.

Read-outs that look alike come from different tables or passages of the source. Where only a bound is given, the exact number is not on record here.

Take `CN1CC=CCOc2cc(ccc2C#N)Nc2nc3c(c1n2)CCC3c1ccccc1` (stereo not drawn) [Example 29B, (11Z)-7-cyano-14-methyl-18-phenyl-10,13,14,16,17,18-hexahydro-15,2-(azeno)-8,4-(metheno)cyclopenta[h][1,6,10,12]oxatriazacycloheptadecine]: the IC50 under setting [1] fell in the range of 100 to 1000 nM. In the case of `Cc1ncn(-c2ccc3cc2OCCCCNc2nc(nc4c2CCC4c2ccccc2)N3)n1` (stereo not drawn) [Example 49B, 7-(3-methyl-1H-1,2,4-triazol-1-yl)-18-phenyl-10,11,12,13,14,16,17,18-octahydro-15,2-(azeno)-8,4-(metheno)cyclopenta[h][1,6,10,12]oxatriazacycloheptadecine], under setting [2], the IC50 lay in the range of 10 to 100 nM. Consider `CC1(c2ccc(F)cc2)CCc2c3nc(nc21)Nc1ccc(C#N)c(c1)OC/C=C\CN3` (stereo not drawn) [Example 68, (11E)-7-cyano-18-(4-fluorophenyl)-18-methyl-10,13,14,16,17,18-hexahydro-15,2-(azeno)-8,4-(metheno)cyclopenta[h][1,6,10,12]oxatriazacycloheptadecine], for which the IC50 under setting [3] is 160 nM. `Cc1ncn(-c2ccc3cc2OCCCCNc2nc(nc4c2CCC4c2ccccc2)N3)n1` (stereo not drawn) [Example 49A, 7-(3-methyl-1H-1,2,4-triazol-1-yl)-18-phenyl-10,11,12,13,14,16,17,18-octahydro-15,2-(azeno)-8,4-(metheno)cyclopenta[h][1,6,10,12]oxatriazacycloheptadecine]: the IC50 under setting [1] is less than 10 nM. For `Clc1cn(-c2ccc3cc2OCCOCCNc2nc(nc4c2CCC4c2ccccc2)N3)cn1` (stereo not drawn) [Example 8A, 7-(4-chloro-1H-imidazol-1-yl)-19-phenyl-10,11,13,14,15,17,18,19-octahydro-16,2-(azeno)-8,4-(metheno)cyclopenta[i][1,4,7,11,13]dioxatriazacyclooctadecine], under setting [2], the 50% inhibitory concentration (IC50) was less than 10 nM. With `CN1CC=CCOc2cc(ccc2C#N)Nc2nc3c(c1n2)CCC3c1ccccc1` (stereo not drawn) [Example 29A, (11Z)-7-cyano-14-methyl-18-phenyl-10,13,14,16,17,18-hexahydro-15,2-(azeno)-8,4-(metheno)cyclopenta[h][1,6,10,12]oxatriazacycloheptadecine], the IC50 under setting [1] is less than 10 nM. Take `Cc1ncn(-c2ccc3cc2OCCCCN(C)c2nc(nc4c2CCC4c2ccc(F)cc2F)N3)n1` (stereo not drawn) [Example 61B, 18-(2,4-difluorophenyl)-14-methyl-7-(3-methyl-1H-1,2,4-triazol-1-yl)-10,11,12,13,14,16,17,18-octahydro-15,2-(azeno)-8,4-(metheno)cyclopenta[h][1,6,10,12]oxatriazacycloheptadecine]: the half-inhibitory concentration (IC50) under setting [2] lay in the range of 10 to 100 nM. “(11E)-7-(4-chloro-1H-imidazol-1-yl)-18-phenyl-10,13,14,16,17,18-hexahydro-15,2-(azeno)-8,4-(metheno)cyclopenta[h][1,6,10,12]oxatriazacycloheptadecine [Example 2B]”: the IC50 under setting [3] is 15 nM. Turning to `Cc1ncn(-c2ccc3cc2OCCCCN(C)c2nc(nc4c2CCC4c2ccccc2)N3)n1` (stereo not drawn) [Example 50A, 14-methyl-7-(3-methyl-1H-1,2,4-triazol-1-yl)-18-phenyl-10,11,12,13,14,16,17,18-octahydro-15,2-(azeno)-8,4-(metheno)cyclopenta[h][1,6,10,12]oxatriazacycloheptadecine], the IC50 under setting [1] is less than 10 nM. As for `Cc1ncnn1-c1ccc2cc1OCC=CCNc1nc(nc3c1CCC3c1ccccc1)N2` (stereo not drawn) [Example 43B, (11E)-7-(5-methyl-1H-1,2,4-triazol-1-yl)-18-phenyl-10,13,14,16,17,18-hexahydro-15,2-(azeno)-8,4-(metheno)cyclopenta[h][1,6,10,12]oxatriazacycloheptadecine], the IC50 under setting [3] is 53 nM. As for `N#Cc1ccc2cc1OCCNCCNc1nc(nc3c1CCC3c1ccc(F)cc1)N2` (single isomer, unassigned) [Example 26A, 7-cyano-19-(4-fluorophenyl)-11,12,13,14,15,17,18,19-octahydro-10H-16,2-(azeno)-8,4-(metheno)cyclopenta[i][1,4,7,11,13]oxatetraazacyclooctadecine], the IC50 under setting [1] lay within 10 to 100 nM. As for `CN1CC=CCOc2cc(ccc2-n2cnc(Cl)c2)Nc2nc3c(c1n2)CCC3c1ccccc1` (stereo not drawn) [Example 3B, (11Z)-7-(4-chloro-1H-imidazol-1-yl)-14-methyl-18-phenyl-10,13,14,16,17,18-hexahydro-15,2-(azeno)-8,4-(metheno)cyclopenta[h][1,6,10,12]oxatriazacycloheptadecine], under setting [1], the IC50 is 10 to 100 nM. `Cc1ncn(-c2ccc3cc2OCC=CCCc2nc(nc4c2CCC4c2ccccc2)N3)n1` (stereo not drawn) [Example 59B, (11E)-7-(3-methyl-1H-1,2,4-triazol-1-yl)-18-phenyl-10,13,14,16,17,18-hexahydro-15,2-(azeno)-8,4-(metheno)cyclopenta[h][1,10,12]oxadiazacycloheptadecine]: the IC50 under setting [3] was found to be 32 nM. As for `CN1CCCCOc2cc(ccc2C#N)Nc2nc3c(c1n2)CCC3c1ccc(F)cc1F` (single isomer, unassigned) [Example 32B, 7-cyano-18-(2,4-difluorophenyl)-14-methyl-10,11,12,13,14,16,17,18-octahydro-15,2-(azeno)-8,4-(metheno)cyclopenta[h][1,6,10,12]oxatriazacycloheptadecine], the IC50 under setting [1] lay within 100 to 1000 nM. As to `Cc1ncn(-c2ccc3cc2OCC=CCNc2nc(nc4c2CCC4c2ccccc2)N3)n1` (stereo not drawn) [Example 39B, (11Z)-7-(3-methyl-1H-1,2,4-triazol-1-yl)-18-phenyl-10,13,14,16,17,18-hexahydro-15,2-(azeno)-8,4-(metheno)cyclopenta[h][1,6,10,12]oxatriazacycloheptadecine], the IC50 under setting [1] was in the range of 10 to 100 nM.

As for `CC1C/C=C/COc2cc(ccc2-n2cnc(Cl)c2)Nc2nc(c3c(n2)C(c2ccccc2)CC3)N1` (stereo not drawn) [Example 7A, (11E)-7-(4-chloro-1H-imidazol-1-yl)-14-methyl-19-phenyl-3,10,13,14,15,17,18,19-octahydro-2,16-(azeno)-8,4-(metheno)cyclopenta[j][1,7,9,13]oxatriazacyclooctadecine], the IC50 (19 h, unit inferred, read-out: Activity Rating (Aβ42 cellular IC50), numeric value) stood at 8.8 nM.

With `CN1CCCOc2cc(ccc2-n2cnc(Cl)c2)Nc2nc3c(c1n2)CCC3c1ccccc1` (stereo not drawn) [Example 10A, 7-(4-chloro-1H-imidazol-1-yl)-13-methyl-17-phenyl-11,12,13,15,16,17-hexahydro-10H-14,2-(azeno)-8,4-(metheno)cyclopenta[g][1,5,9,11]oxatriazacyclohexadecine], the IC50 under setting [2] lay in the range of 10 to 100 nM. On to “(11Z)-7-(3-methyl-1H-1,2,4-triazol-1-yl)-18-phenyl-10,13,14,16,17,18-hexahydro-15,2-(azeno)-8,4-(metheno)cyclopenta[h][1,10,12]oxadiazacycloheptadecine [Example 58B]”, for which the IC50 under setting [3] worked out at 24 nM. Still for that read-out and setting: under `Cc1ncn(-c2ccc3cc2OCC=CCNc2nc(nc4c2CCC4c2ccccc2)N3)n1` (stereo not drawn) [Example 39A, (11Z)-7-(3-methyl-1H-1,2,4-triazol-1-yl)-18-phenyl-10,13,14,16,17,18-hexahydro-15,2-(azeno)-8,4-(metheno)cyclopenta[h][1,6,10,12]oxatriazacycloheptadecine] stands 4 nM. With `Cc1ncnn1-c1ccc2cc1OCCCCN(C)c1nc(nc3c1CCC3c1ccccc1)N2` (stereo not drawn) [Example 48A, 14-methyl-7-(5-methyl-1H-1,2,4-triazol-1-yl)-18-phenyl-10,11,12,13,14,16,17,18-octahydro-15,2-(azeno)-8,4-(metheno)cyclopenta[h][1,6,10,12]oxatriazacycloheptadecine], under setting [2], the IC50 was less than 10 nM. In the case of `N#Cc1ccc2cc1OCC=CCNc1nc(nc3c1CCC3c1ccc(F)cc1F)N2` (stereo not drawn) [Example 24A, (11Z)-7-cyano-18-(2,4-difluorophenyl)-10,13,14,16,17,18-hexahydro-15,2-(azeno)-8,4-(metheno)cyclopenta[h][1,6,10,12]oxatriazacycloheptadecine], the IC50 under setting [1] is less than 10 nM.

For `N#Cc1ccc2cc1OCCCCNc1nc(nc3c1CCC3c1ccccc1)N2` (stereo not drawn) [Example 23A, 7-cyano-18-phenyl-10,11,12,13,14,16,17,18-octahydro-15,2-(azeno)-8,4-(metheno)cyclopenta[h][1,6,10,12]oxatriazacycloheptadecine], the IC50 under setting [2] lay in the range of 10 to 100 nM. On the same count and under the same terms, in the case of `Cc1ncn(-c2ccc3cc2OCCCCCc2nc(nc4c2CCC4c2ccccc2)N3)n1` (stereo not drawn) [Example 62A, 7-(3-methyl-1H-1,2,4-triazol-1-yl)-18-phenyl-10,11,12,13,14,16,17,18-octahydro-15,2-(azeno)-8,4-(metheno)cyclopenta[h][1,10,12]oxadiazacycloheptadecine] it was less than 10 nM.

As to “(11Z)-7-(4-chloro-1H-imidazol-1-yl)-18-phenyl-10,13,14,16,17,18-hexahydro-15,2-(azeno)-8,4-(metheno)cyclopenta[h][1,6,10,12]oxatriazacycloheptadecine [Example 1B]”, under setting [1], the IC50 was 10 to 100 nM.
